Test results published in ChEMBL document CHEMBL1201862, “PubChem BioAssay data set” (2004).
Activity calls are given as the source filed them.

Experiments:
Cytochrome P450 3A4 = Cytochrome P450 3A4 (Homo sapiens, UniProt P08684); conditions: Potency;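 further: confirmatory qHTS run detecting inhibitors and substrates of CYP3A4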
INS1 = assay: INS-1E survival protection against cytokine death – cell-based, luminescence, retest, dose response (AID 449756); assay type: functional; conditions: Rattus norvegicus;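 further: cell death triggered by IL-1 beta plus TNF-alpha plus IFN-gamma mixture; protective hits raise ATP signal compared with cytokine alone wells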
[1] = reduction of Shn3 3'UTR-driven luciferase in osteoblasts – cell-based, Clone20 osteoblasts, firefly luciferase, cherry-picked, dose response (AID 624132); assay type: functional;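 further: firefly luciferase luminescence from reporter carrying the Shn3 3'UTR in osteoblasts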
[2] = loss of viability in HepG2 cells – cell-based, CellTiter-Glo, cherry-picked, cytotoxicity control for Shn3 inhibitor project, dose response (AID 624134); assay type: functional
[3] = non-specific 3'UTR reporter inhibition in Clone20-Shn3RL – cell-based, Renilla luciferase, cherry-picked, counter-screen for Shn3 inhibitor project, dose response (AID 624133); assay type: functional
Protein Wnt-3a = Protein Wnt-3a (Mus musculus, UniProt P27467); assay: antagonism of Wnt3a pathway luciferase reporter – Wnt-LIGHT cells, luminescence, selectivity assay for Gli-SUFU antagonist project, dose response (AID 651570); assay type: functional; conditions: read-out: IC50_Mean;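 further: Wnt-LIGHT reporter cells stimulated with conditioned medium from Wnt3a-producing cells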
Chain of Protein Wnt-3a (P27467 whole entry): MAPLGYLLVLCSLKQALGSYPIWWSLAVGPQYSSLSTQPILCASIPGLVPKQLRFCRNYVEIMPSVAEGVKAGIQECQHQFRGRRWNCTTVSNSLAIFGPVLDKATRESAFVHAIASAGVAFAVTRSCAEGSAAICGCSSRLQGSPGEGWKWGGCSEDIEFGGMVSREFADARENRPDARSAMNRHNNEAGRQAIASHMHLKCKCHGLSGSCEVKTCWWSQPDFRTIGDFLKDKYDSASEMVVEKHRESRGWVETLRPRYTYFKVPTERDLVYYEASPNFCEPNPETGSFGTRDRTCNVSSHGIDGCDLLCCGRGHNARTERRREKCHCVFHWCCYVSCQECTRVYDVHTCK

[4] = target: T1, COUP transcription factor 2 (Homo sapiens, UniProt P24468); assay: Luminescence-based cell-based high throughput dose response assay to identify inhibitors of COUP-TFII (NR2F2).; assay type: functional;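 further: HEK293 cells transiently cotransfected with COUP-TFII expression vector and reporter; luciferase reporter luminescence driven by COUP-TFII from the pX2-168 reporter plasmid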
T1 sequence (P24468 whole entry): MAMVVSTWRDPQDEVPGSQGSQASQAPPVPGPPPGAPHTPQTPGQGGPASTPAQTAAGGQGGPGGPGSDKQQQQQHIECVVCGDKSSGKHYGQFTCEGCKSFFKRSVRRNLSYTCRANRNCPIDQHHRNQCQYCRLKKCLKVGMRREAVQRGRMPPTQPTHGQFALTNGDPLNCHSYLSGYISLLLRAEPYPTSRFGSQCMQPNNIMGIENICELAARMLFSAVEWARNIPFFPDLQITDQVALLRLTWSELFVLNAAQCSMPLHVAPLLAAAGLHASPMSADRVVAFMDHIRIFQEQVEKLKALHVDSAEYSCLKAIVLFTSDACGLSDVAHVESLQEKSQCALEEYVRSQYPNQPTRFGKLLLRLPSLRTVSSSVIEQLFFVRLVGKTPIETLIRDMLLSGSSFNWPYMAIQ

[5] = HEK-293T cell viability reduction – luminescence, B-cell screen hits, cytotoxicity control for BCR NF-kB inhibitor project, dose response (AID 489021); assay type: functional, cell-based;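 further: HEK-293T cells carrying an NF-kB luciferase reporter; cells exposed to compound for about 14 hours before viability readout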
BJ [6] = assay: BJ-TERT fibroblast viability loss – cell-based, RAS-independent, luminescence, dose response (AID 1933); assay type: functional; conditions: Homo sapiens
BJ [7] = assay: cells; assay type: functional, cell-based; conditions: Homo sapiens
BJ [8] = assay: BJ-TERT-LT-ST fibroblast viability loss – cell-based, RAS-independent, luminescence, dose response (AID 1935); assay type: functional; conditions: Homo sapiens;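 further: BJ fibroblasts immortalized with TERT plus LT and ST oncogenes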
[9] = DRD fibroblast viability loss – cell-based, non-viral oncogenic, luminescence, dose response (AID 1934); assay type: functional; conditions: Homo sapiens
[10] = target: G-protein coupled receptor 55 (Homo sapiens, UniProt Q9Y2T6); assay: selective activators of receptor GPR55 – imaging, U2OS cells, beta-arrestin-GFP redistribution, primary screen (AID 1961); assay type: functional
Chain of G-protein coupled receptor 55 (Q9Y2T6 whole entry): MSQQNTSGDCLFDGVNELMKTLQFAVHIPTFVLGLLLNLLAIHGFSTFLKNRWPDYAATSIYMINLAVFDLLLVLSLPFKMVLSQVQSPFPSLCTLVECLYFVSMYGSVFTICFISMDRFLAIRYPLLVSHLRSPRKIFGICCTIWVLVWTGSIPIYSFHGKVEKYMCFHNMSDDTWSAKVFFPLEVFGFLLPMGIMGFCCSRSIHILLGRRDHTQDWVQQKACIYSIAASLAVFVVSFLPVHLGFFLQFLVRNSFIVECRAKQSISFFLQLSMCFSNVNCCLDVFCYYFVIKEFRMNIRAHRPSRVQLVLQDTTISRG

BJ [11] = assay: growth inhibition of engineered Ras-driven BJ cells – cell-based, alamar blue fluorescence, cherrypicked samples, dose response (AID 2631); assay type: functional; conditions: Homo sapiens;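 further: confirmatory dose-response assay in RAS-dependent BJ fibroblasts engineered with TERT, LT and ST, with cytotoxicity read by fluorescence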
[12] = viability loss in Vero cells – cytotoxicity control for Vif-APOBEC3G degradation inhibitor project, dose response (AID 1117358); assay type: functional; conditions: Vero
Cytochrome P450 2D6 = Cytochrome P450 2D6 (Homo sapiens, UniProt P10635);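 further: CYP2D6 member of a cytochrome P450 panel assay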
Chain of Cytochrome P450 2D6 (P10635 whole entry): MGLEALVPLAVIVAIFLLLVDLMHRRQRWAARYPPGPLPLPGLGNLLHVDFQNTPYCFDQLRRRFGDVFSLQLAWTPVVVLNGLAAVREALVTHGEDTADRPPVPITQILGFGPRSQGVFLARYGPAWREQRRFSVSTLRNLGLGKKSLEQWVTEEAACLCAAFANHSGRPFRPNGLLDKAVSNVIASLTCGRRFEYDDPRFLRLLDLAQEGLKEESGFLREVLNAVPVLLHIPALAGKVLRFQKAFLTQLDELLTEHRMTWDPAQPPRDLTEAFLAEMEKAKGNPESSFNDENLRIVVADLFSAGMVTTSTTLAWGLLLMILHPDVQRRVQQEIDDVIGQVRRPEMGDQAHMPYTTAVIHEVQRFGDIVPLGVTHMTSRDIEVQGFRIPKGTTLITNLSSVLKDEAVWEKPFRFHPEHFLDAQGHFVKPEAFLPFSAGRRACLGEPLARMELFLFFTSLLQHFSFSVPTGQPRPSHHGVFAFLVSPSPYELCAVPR

[13] = A549 cell cytotoxicity, dose response, cytotoxicity control, plate reader, cherry-pick, antagonist series (AID 743412); assay type: functional, cell-based
[14] = toxicity toward HepG2 liver cells – cell-based, plate reader, cherry-pick, antagonist series, cytotoxicity control, dose response (AID 743416); assay type: functional
[15] = blockers of bursicon-stimulated LGR2 cAMP reporter – cell-based, HEK293, CRE-luciferase reporter, cherry pick, set 2, dose response (AID 743343); assay type: functional;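 further: transfected cells were stimulated with diluted bursicon conditioned medium after compound addition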
[16] = blockade of melanocortin 4 receptor signaling – cell-based, plate reader, cherry pick, counter-screen for LGR2 antagonist project, dose response (AID 743444); assay type: functional;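 further: transfected HEK 293 cells stimulated with alpha-MSH peptide; potency of inhibitors of the alpha-MSH evoked signal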
[17] = viability loss in HEK293 cells – cell-based, plate reader, cherry-picked samples, cytotoxicity control, dose response (AID 743446); assay type: functional
[18] = HIV-1 Vif–A3G interaction blockers – biochemical, TR-FRET, GST-Vif 1-94, biotin-A3G peptide, dose response retest, primary screen (AID 1117319); assay type: functional;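 further: TR-FRET signal of purified GST-Vif binding a biotinylated A3G peptide; inhibitors lower the FRET signal by blocking Vif and A3G binding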
Leucine aminopeptidase = target: T2, Leucine aminopeptidase (Plasmodium falciparum 3D7, UniProt Q8IL11); assay: P. falciparum M17LAP inhibitors, primary screen, biochemical, fluorogenic H-Leu-NHMec substrate, 1536-well (AID 1619); assay type: functional
T2 sequence (Q8IL11 whole entry): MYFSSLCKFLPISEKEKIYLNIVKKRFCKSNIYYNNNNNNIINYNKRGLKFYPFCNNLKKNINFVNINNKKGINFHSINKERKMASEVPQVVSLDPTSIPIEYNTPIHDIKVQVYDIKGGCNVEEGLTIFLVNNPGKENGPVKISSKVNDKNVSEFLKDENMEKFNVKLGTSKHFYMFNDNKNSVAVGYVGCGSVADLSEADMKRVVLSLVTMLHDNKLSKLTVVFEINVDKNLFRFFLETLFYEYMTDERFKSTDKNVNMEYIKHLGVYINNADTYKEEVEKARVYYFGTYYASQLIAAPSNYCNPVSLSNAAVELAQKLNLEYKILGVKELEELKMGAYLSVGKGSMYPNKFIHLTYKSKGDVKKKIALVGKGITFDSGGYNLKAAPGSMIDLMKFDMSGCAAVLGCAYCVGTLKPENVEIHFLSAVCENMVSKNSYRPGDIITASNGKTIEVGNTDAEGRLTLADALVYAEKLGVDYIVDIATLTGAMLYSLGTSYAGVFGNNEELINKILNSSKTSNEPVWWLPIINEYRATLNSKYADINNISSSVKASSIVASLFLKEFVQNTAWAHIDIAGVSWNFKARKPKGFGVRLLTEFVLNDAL

Chain of Cytochrome P450 3A4 (P08684 whole entry): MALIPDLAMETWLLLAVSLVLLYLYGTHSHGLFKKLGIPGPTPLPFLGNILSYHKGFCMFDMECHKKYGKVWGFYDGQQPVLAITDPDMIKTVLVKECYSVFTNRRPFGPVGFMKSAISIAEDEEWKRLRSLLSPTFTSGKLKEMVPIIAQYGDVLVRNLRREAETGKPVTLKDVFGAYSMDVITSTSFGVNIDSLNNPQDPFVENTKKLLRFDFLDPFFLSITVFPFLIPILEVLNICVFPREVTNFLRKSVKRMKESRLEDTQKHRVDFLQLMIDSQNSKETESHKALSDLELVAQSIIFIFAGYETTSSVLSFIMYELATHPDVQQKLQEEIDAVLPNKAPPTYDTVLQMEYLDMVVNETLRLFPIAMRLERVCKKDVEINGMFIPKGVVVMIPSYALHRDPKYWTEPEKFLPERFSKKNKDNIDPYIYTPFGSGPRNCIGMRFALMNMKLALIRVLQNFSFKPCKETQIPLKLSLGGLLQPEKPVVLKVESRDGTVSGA

Structure (SMILES): CCOC(=O)[C@]1(C(NC(=O)OC)c2ccccc2)CCCC1=O (some centres not stated)
- AC50 (Cytochrome P450 3A4): 2.51 µM (inconclusive)

Structure (SMILES): CCc1ccc(CN(C)C(=O)c2cc(COc3cccc4cnccc34)on2)cc1
- AC50 (INS1): 3.27 µM (active)
- AC50 [1]: 1.92 µM (active)
- AC50 [2]: 3.23 µM (active)
- AC50 [3]: 13.5 µM (active)
- IC50 (Protein Wnt-3a): 4.25 µM (active)
- IC50 [4]: 7.5 µM (active)

Structure (SMILES): CCn1c(S)nc2cc(S(=O)(=O)N3CCCCC3)ccc21
- IC50 [5]: > 80 µM (inactive)

Structure (SMILES): COC(=O)c1cccc(C23CC4(C2)[C@H](CN(CC2CCCCC2)[C@@H]4c2ccccc2)C3c2ccc(C(F)(F)F)cc2)c1 (some centres not stated)
- AC50 (Cytochrome P450 3A4): 15.8 µM (inconclusive)

Structure (SMILES): FC(F)(F)c1ccc(C2[C@H]3CN(Cc4ccc(-c5ccccc5)cc4)[C@H](c4ccccc4)C34CC2(c2cccnc2)C4)cc1 (some centres not stated)
- AC50 (Cytochrome P450 3A4): 15.8 µM (inconclusive)

Structure (SMILES): COc1ccccc1-n1cnc2cc(NCc3cccs3)ccc21
- EC50 (BJ [6]): 8.39 µM (inconclusive)
- EC50 (BJ [7]): 20.5 µM (active)
- EC50 (BJ [8]): 11 µM (inconclusive)
- EC50 [9]: 4.55 µM (active)
- EC50 [10]: 2.87 µM (active)
- EC50 (BJ [11]): 0.248 µM (active)
- CC50 [12]: > 40 µM (active)

Structure (SMILES): O=C(CNC(=O)/C(=C\c1ccccc1)NC(=O)c1ccc(Br)cc1)OCc1ccccc1
- CC50 [12]: > 40 µM (active)
- AC50 (Cytochrome P450 2D6): 14.1 µM (inconclusive)

Structure (SMILES): COc1cc(C(=O)Oc2cccc(Nc3ncnc4ccccc34)c2)cc(OC)c1OC
- AC50 [13]: 51.4 µM (active)
- AC50 [14]: > 52 µM (inactive)
- AC50 [15]: 14.1 µM (active)
- AC50 [16]: 17.7 µM (active)
- AC50 [17]: > 52 µM (inactive)
- IC50 [18]: > 100 µM (active)
- CC50 [12]: 35.2 µM (active)

Structure (SMILES): CCOc1cc(/C=C(/C#N)c2ccc(F)cc2)ccc1OCc1ccc(C(=O)O)o1
- IC50 (Leucine aminopeptidase): 23.6 µM (active)
